Measured values published in patent US8178517B2, “6-methylvitamin D3 analogs and their uses” (Wisconsin Alumni Research Foundation, priority 2009, dated 2012).
pEC50, pKi: −log10 of the molar value.

What was measured:
HL-60 cells = experiment: HL-60 differentiation (nitro blue tetrazolium reduction); type: cell-based, human; details: for pEC50: Homo sapiens, HL-60 cells, differentiation into monocytes, FIG. 2, read-out: EC50, HL-60 cell differentiation
Protocol: Serial dilutions were prepared so that a range of drug concentrations could be tested without changing the final concentration of ethanol (≦0.2%) present in the cell cultures.
Human promyelocytic leukemia (HL60) cells were grown in RPMI-1640 medium containing 10% fetal bovine serum. The cells were incubated at 37° C. in the presence of 5% CO2.
HL60 cells were plated at 1.2×10^5 cells/ml. Eighteen hours after plating, cells in duplicate were treated with drug. Four days later, the cells were harvested and a nitro blue tetrazolium reduction assay was performed (Collins et al., 1979; J. Exp. Med. 149:969-974). The percentage of differentiated cells was determined by counting a total of 200 cells and recording the number that contained intracellular black-blue formazan deposits. Verification of differentiation to monocytic cells was determined by measuring phagocytic activity (data not shown).

[1] = test system: 24-hydroxylase (24Ohase) gene promoter; experiment: In vitro transcription assay (24-hydroxylase promoter luciferase reporter in ROS 17/2.8 bone cells); type: cell-based; details: for pEC50: ROS 17/2.8 bone cells, luciferase reporter, FIG. 3, read-out: EC50, transcriptional activity in bone cells (24-hydroxylase gene)
Protocol: In Vitro Transcription Assay
Transcription activity was measured in ROS 17/2.8 (bone) cells that were stably transfected with a 24-hydroxylase (24Ohase) gene promoter upstream of a luciferase reporter gene (Arbour et al., 1998). Cells were given a range of doses. Sixteen hours after dosing the cells were harvested and luciferase activities were measured using a luminometer.
RLU=relative luciferase units.

[2] = test system: vitamin D-deficient rats on a low calcium diet; experiment: Bone calcium mobilization (serum calcium) in vitamin D-deficient rats; type: in vivo, rat; details: for serum calcium (bone calcium mobilization): 7020 pmol/day ip for 4 consecutive days, rats on 0.02% Ca diet
Protocol: (§1) Intestinal Calcium Transport and Bone Calcium Mobilization
(§2) Male, weanling Sprague-Dawley rats were placed on Diet 11 (0.47% Ca) diet+AEK oil for one week followed by Diet 11 (0.02% Ca)+AEK oil for 3 weeks. The rats were then switched to a diet containing 0.47% Ca for one week followed by two weeks on a diet containing 0.02% Ca. Dose administration began during the last week on 0.02% calcium diet. Four consecutive ip doses were given approximately 24 hours apart. Twenty-four hours after the last dose, blood was collected from the severed neck and the concentration of serum calcium determined as a measure of bone calcium mobilization. The first 10 cm of the intestine was also collected for intestinal calcium transport analysis using the everted gut sac method.

[3] = test system: vitamin D-deficient rats on a low calcium diet; experiment: Intestinal calcium transport, everted gut sac method; type: in vivo, rat; details: for intestinal calcium transport activity (everted gut sac): 7020 pmol/day for 4 consecutive days
Protocol: as §1, §2

[4] = molecular target: T1, full-length recombinant rat vitamin D receptor (Rattus norvegicus, UniProt P13053); experiment: biochemical
T1 sequence (P13053 1-423): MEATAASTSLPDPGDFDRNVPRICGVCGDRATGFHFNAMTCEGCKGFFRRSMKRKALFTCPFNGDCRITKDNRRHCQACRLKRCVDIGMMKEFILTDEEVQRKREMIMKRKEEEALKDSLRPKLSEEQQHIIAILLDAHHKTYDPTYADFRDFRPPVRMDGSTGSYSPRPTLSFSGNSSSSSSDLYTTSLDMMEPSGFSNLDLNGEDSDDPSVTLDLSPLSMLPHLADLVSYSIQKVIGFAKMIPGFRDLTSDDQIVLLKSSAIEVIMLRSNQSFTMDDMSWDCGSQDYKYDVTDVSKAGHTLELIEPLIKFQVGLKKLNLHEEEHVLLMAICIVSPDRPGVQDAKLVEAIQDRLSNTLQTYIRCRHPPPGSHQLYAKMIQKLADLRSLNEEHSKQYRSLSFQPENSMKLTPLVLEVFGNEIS
From the text: Vitamin D Receptor Binding
Full-length recombinant rat receptor was expressed in E. coli BL21 (DE3) Codon Plus RIL cells and purified to homogeneity using two different column chromatography systems. The first system was a nickel affinity resin that utilizes the C-terminal histidine tag on this protein. The protein that was eluted from this resin was further purified using ion exchange chromatography (S-Sepharose Fast Flow). Aliquots of the purified protein were quick frozen in liquid nitrogen and stored at −80° C. until use. For use in binding assays, the protein was diluted in TEDK50 (50 mM Tris, 1.5 mM EDTA, pH7.4, 5 mM DTT, 150 mM KCl) with 0.1% Chaps detergent.
Radiolabeled and unlabeled ligands were added to 100 mcl of the diluted protein at a final ethanol concentration of ≦10%, mixed and incubated overnight on ice to reach binding equilibrium. The following day, 100 mcl of hydroxylapatite slurry (50%) was added to each tube and mixed at 10-minute intervals for 30 minutes. The hydroxylapaptite was collected by centrifugation and then washed three times with Tris-EDTA buffer (50 mM Tris, 1.5 mM EDTA, pH 7.4) containing 0.5% Titron X-100. […] Total binding was determined from the tubes containing only radiolabeled ligand.

[5] = Isomerization to previtamin form / storage stability; type: physicochemical; details: can be stored by a prolonged time in a freezer
[6] = relative to 1α,25-dihydroxyvitamin D3
[7] = relative to 1,25(OH)2D3, in vivo, rats

**Q.** With C=C1C(=CC=C2CCCC3(C)C2CCC3C(C)CCCC(C)(C)O)CC(O)CC1O (stereo not drawn) [1,25(OH)2D3, 1α,25-dihydroxyvitamin D3, reference compound] as the molecule, how does the pEC50 (HL-60 cells) read?
**A.** Its pEC50 is 8.70.

**Q.** And the pEC50 [1]?
**A.** Its pEC50 is 9.70.

**Q.** And the “serum calcium (bone calcium mobilization)” value ([2]; FIG. 4)?
**A.** The value was 7.6 mg/dL.

**Q.** What about the “effect on serum calcium levels across dosages” value ([2]; all dosages tested, FIG. 4) of the same molecule?
**A.** The value was “increased serum calcium levels at all dosages”.

**Q.** And the “intestinal calcium transport activity (everted gut sac)” value ([3]; rats, FIG. 5)?
**A.** Its value is 8.3.

**Q.** With C=C1/C(=C(C)\C=C2/CCC[C@@]3(C)C2CCC3[C@H](C)CCCC(C)(C)O)C[C@@H](O)C[C@@H]1O (stereo partly drawn) [Me-Cvit, 1α,25-dihydroxy-6-methylvitamin D3] as the molecule, how does the pEC50 (HL-60 cells) read?
**A.** The pEC50 was 7.10.

**Q.** What about the “times less activity than 1α,25-dihydroxyvitamin D3 in HL-60 cell differentiation” value (HL-60 cells; [6]) of the same molecule?
**A.** Its value is roughly 20 times.

**Q.** What about the pKi [4] of the same molecule?
**A.** The pKi was 10.70.

**Q.** What about the “stability (isomerization to previtamin D form)” value [5] of the same molecule?
**A.** Its value is “very easily isomerizes to its previtamin D form 5”.

**Q.** What about the pEC50 [1] of the same molecule?
**A.** Its pEC50 is 8.40.

**Q.** And the “times less transcriptional activity in bone cells than 1α,25-dihydroxyvitamin D3” value [1, 6]?
**A.** The value was roughly 10 times.

**Q.** And the “serum calcium (bone calcium mobilization)” value ([2]; FIG. 4)?
**A.** Its value is 4.3 mg/dL.

**Q.** What about the “times less potent than 1,25(OH)2D3 in mobilizing calcium from bone” value [2, 7] of the same molecule?
**A.** The value was “about 400 times”.

**Q.** What about the “intestinal calcium transport activity (everted gut sac)” value ([3]; rats, FIG. 5) of the same molecule?
**A.** Its value is 4.8.

**Q.** And the “dose dependence of intestinal calcium transport” value ([3]; across doses, FIG. 5)?
**A.** Its value is “promotes intestinal calcium transport in a dose dependent manner”.

**Q.** And the “times less potent than 1,25(OH)2D3 in stimulating intestinal calcium transport” value [3, 7]?
**A.** Its value is “greater than 1,000 times”.
